# Where “and” joins values, the source holds several entries; their conditions need not be identical. Equal values may be shown once.
# Test system: SARS-CoV-2, isolate USA-WA1/2020
# Test: microbe, parasite or virus in culture
# Type: cell-based
# Conditions: HeLa-ACE2 SARS-CoV-2 antiviral effect without P-gp inhibitor; maximum measured response
row,Compound,perc_max_measured [%]
1,CNCc1cc(-c2cc3c(N[C@@H](c4ccc5c(c4)S(=O)(=O)CCC5)C(C)C)ncnc3[nH]2)co1 [ASAP-0011176],134.366

# Same assay, conditions: HeLa-ACE2 SARS-CoV-2 antiviral effect without P-gp inhibitor; maximum measured response of dose series
row,Compound,perc_max_measured [%]
1,CNCc1cc(-c2cc3c(N[C@@H](c4ccc5c(c4)S(=O)(=O)CCC5)C(C)C)ncnc3[nH]2)co1 [ASAP-0011176],113.346

# Same assay, conditions: HeLa-ACE2 SARS-CoV-2 antiviral effect without P-gp inhibitor; minimum measured response
row,Compound,perc_min_measured [%]
1,CNCc1cc(-c2cc3c(N[C@@H](c4ccc5c(c4)S(=O)(=O)CCC5)C(C)C)ncnc3[nH]2)co1 [ASAP-0011176],28.123

# Same assay, conditions: HeLa-ACE2 SARS-CoV-2 antiviral effect without P-gp inhibitor; minimum measured response of dose series
row,Compound,perc_min_measured [%]
1,CNCc1cc(-c2cc3c(N[C@@H](c4ccc5c(c4)S(=O)(=O)CCC5)C(C)C)ncnc3[nH]2)co1 [ASAP-0011176],56.361

# Same assay, conditions: HeLa-ACE2 SARS-CoV-2 antiviral effect without P-gp inhibitor; read-out: ec50
row,Compound,EC50
1,CNCc1cc(-c2cc3c(N[C@@H](c4ccc5c(c4)S(=O)(=O)CCC5)C(C)C)ncnc3[nH]2)co1 [ASAP-0011176],11.6 µM and > 20 µM

# Same assay, conditions: HeLa-ACE2 SARS-CoV-2 antiviral effect without P-gp inhibitor; read-out: ec90
row,Compound,EC90 [µM]
1,CNCc1cc(-c2cc3c(N[C@@H](c4ccc5c(c4)S(=O)(=O)CCC5)C(C)C)ncnc3[nH]2)co1 [ASAP-0011176],> 20

# Test system: SARS-CoV-2
# Test: Antiviral effect in iPSC-derived pneumocyte system
# Type: cell-based
# Conditions: iPSC pneumocytes SARS-CoV-2 antiviral effect
Compound,EC50 [µM],EC90 [µM]
CNCc1cc(-c2cc3c(N[C@@H](c4ccc5c(c4)S(=O)(=O)CCC5)C(C)C)ncnc3[nH]2)co1 [ASAP-0011176],3.34,> 50

# Same assay, conditions: iPSC pneumocytes SARS-CoV-2 antiviral effect; maximum measured response of dose series
row,Compound,perc_max_measured [%]
1,CNCc1cc(-c2cc3c(N[C@@H](c4ccc5c(c4)S(=O)(=O)CCC5)C(C)C)ncnc3[nH]2)co1 [ASAP-0011176],92.989

# Same assay, conditions: iPSC pneumocytes SARS-CoV-2 antiviral effect; minimum measured response of dose series
row,Compound,perc_min_measured [%]
1,CNCc1cc(-c2cc3c(N[C@@H](c4ccc5c(c4)S(=O)(=O)CCC5)C(C)C)ncnc3[nH]2)co1 [ASAP-0011176],2.106

# Test system: not listed separately
# Test: In vitro mouse hepatocyte stability
# Type: in vitro ADME
# Conditions: not given
# Description: (§1) Supplement media-1.zip/Hepatocyte_Stability.csv, table | column: clint; t_half
Compound,clint [uL/min/1E6 cells],t_half [min]
CNCc1cc(-c2cc3c(N[C@@H](c4ccc5c(c4)S(=O)(=O)CCC5)C(C)C)ncnc3[nH]2)co1 [ASAP-0011176],74.7,9.27

# Test system: not listed separately
# Test: In vitro dog hepatocyte stability
# Type: in vitro ADME
# Conditions: not given
# Description: as §1
Compound,clint [uL/min/1E6 cells],t_half [min]
CNCc1cc(-c2cc3c(N[C@@H](c4ccc5c(c4)S(=O)(=O)CCC5)C(C)C)ncnc3[nH]2)co1 [ASAP-0011176],7.3,94.9

# Biological target: T1, 5-HT transporter (h) (Homo sapiens, UniProt P31645)
# T1 construct: purchased Eurofins Cerep (SafetyScreen44), recognised from the panel format
# Test: In vitro CEREP profiling, 5-HT transporter (h) (antagonist radioligand)
# Conditions: test compound concentration 10 uM
# Description: (§2) Supplement media-1.zip/Safety_Panel_Profile.csv, table | column: perc_inhibition
# T1 sequence (P31645 whole entry): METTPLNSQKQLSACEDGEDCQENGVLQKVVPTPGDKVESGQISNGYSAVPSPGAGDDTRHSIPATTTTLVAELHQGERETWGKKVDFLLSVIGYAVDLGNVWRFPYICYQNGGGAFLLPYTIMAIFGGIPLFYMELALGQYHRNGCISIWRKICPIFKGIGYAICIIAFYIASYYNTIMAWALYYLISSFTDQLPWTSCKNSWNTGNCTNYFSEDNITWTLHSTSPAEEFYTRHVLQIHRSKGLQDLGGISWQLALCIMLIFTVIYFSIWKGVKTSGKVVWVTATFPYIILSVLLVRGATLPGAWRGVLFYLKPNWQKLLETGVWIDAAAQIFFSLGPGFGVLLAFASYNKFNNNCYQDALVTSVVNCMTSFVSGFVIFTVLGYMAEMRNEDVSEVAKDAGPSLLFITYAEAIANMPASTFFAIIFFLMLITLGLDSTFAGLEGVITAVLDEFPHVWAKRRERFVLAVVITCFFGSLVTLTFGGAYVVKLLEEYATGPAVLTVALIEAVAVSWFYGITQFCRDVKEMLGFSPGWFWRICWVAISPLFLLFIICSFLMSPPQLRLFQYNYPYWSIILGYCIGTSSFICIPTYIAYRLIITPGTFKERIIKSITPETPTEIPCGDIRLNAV
row,Compound,"perc_inhibition: % inhibition of the binding of a ligand specific for each target, 5-HT transporter (h) (antagonist radioligand) [%]"
1,CNCc1cc(-c2cc3c(N[C@@H](c4ccc5c(c4)S(=O)(=O)CCC5)C(C)C)ncnc3[nH]2)co1 [ASAP-0011176],24

# Biological target: T2, alpha1A (h) (Homo sapiens, UniProt P35348)
# T2 construct: purchased Eurofins Cerep (SafetyScreen44), recognised from the panel format
# T2 sequence (P35348 1-466): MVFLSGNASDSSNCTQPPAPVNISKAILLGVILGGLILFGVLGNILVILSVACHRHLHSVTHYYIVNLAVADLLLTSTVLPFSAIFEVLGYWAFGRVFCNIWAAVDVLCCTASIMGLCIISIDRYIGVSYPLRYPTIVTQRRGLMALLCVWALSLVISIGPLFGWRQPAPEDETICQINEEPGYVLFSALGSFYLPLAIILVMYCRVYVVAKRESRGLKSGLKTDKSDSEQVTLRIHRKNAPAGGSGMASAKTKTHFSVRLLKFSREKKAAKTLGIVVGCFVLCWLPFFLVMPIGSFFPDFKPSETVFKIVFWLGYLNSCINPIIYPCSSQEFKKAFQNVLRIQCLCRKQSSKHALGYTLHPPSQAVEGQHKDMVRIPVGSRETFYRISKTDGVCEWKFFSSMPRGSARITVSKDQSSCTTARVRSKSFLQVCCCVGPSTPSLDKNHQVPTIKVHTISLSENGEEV
# Test: In vitro CEREP profiling, alpha1A (h) (antagonist radioligand)
# Type: binding
# Conditions: test compound 10 uM
# Description: as §2
row,Compound,perc_inhibition (% inhibition of the binding of a ligand specific for each target) [%]
1,CNCc1cc(-c2cc3c(N[C@@H](c4ccc5c(c4)S(=O)(=O)CCC5)C(C)C)ncnc3[nH]2)co1 [ASAP-0011176],50

# Biological target: T3, H1 (h) (Homo sapiens, UniProt P35367)
# T3 construct: purchased Eurofins Cerep (SafetyScreen44), recognised from the panel format
# Test: In vitro CEREP profiling, H1 (h) (antagonist radioligand)
# Type: binding
# Conditions: test compound concentration 10 uM
# Description: as §2
# T3 sequence (P35367 whole entry): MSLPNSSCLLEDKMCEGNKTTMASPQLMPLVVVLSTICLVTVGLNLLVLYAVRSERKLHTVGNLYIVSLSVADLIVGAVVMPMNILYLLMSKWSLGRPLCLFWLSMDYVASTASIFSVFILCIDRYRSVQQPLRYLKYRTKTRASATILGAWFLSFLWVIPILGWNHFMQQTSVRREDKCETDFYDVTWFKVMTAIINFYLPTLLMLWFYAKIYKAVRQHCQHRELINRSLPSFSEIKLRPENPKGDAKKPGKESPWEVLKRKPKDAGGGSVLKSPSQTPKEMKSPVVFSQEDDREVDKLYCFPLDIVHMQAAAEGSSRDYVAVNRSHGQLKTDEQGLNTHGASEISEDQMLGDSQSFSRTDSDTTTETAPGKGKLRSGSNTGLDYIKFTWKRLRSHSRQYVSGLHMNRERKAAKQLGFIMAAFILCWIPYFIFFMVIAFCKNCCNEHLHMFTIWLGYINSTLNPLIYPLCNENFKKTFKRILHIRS
row,Compound,perc_inhibition (% inhibition of the binding of a ligand specific for each target) [%]
1,CNCc1cc(-c2cc3c(N[C@@H](c4ccc5c(c4)S(=O)(=O)CCC5)C(C)C)ncnc3[nH]2)co1 [ASAP-0011176],-3

# Biological target: T4, beta2 (h) (Homo sapiens, UniProt P07550)
# T4 construct: purchased Eurofins Cerep (SafetyScreen44), recognised from the panel format
# Test: In vitro CEREP profiling, beta2 (h) (antagonist radioligand)
# Type: binding
# Conditions: test compound 10 uM
# Description: as §2
# T4 sequence (P07550 whole entry): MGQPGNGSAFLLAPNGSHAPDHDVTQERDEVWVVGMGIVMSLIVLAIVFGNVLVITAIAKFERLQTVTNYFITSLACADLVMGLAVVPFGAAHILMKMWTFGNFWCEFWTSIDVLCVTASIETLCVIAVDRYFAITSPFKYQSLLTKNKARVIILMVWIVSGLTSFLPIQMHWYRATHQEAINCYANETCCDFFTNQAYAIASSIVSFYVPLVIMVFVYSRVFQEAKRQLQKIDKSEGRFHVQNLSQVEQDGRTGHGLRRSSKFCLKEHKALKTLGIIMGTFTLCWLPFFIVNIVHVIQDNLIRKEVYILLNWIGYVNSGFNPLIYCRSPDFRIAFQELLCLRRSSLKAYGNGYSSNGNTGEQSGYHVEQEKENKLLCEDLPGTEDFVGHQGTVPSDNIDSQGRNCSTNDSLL
row,Compound,perc_inhibition (% inhibition of the binding of a ligand specific for each target) [%]
1,CNCc1cc(-c2cc3c(N[C@@H](c4ccc5c(c4)S(=O)(=O)CCC5)C(C)C)ncnc3[nH]2)co1 [ASAP-0011176],6

# Test system: AR(h)
# Test: In vitro CEREP profiling, AR(h) (agonist radioligand)
# Type: binding, human
# Conditions: test compound concentration 10 uM
# Description: as §2
row,Compound,perc_inhibition (% inhibition of the binding of a ligand specific for each target) [%]
1,CNCc1cc(-c2cc3c(N[C@@H](c4ccc5c(c4)S(=O)(=O)CCC5)C(C)C)ncnc3[nH]2)co1 [ASAP-0011176],10

# Biological target: T5, acetylcholinesterase (h) (Homo sapiens, UniProt P22303)
# T5 construct: purchased Eurofins Cerep (SafetyScreen44), recognised from the panel format
# Test: In vitro CEREP profiling, acetylcholinesterase (h)
# Type: biochemical
# Conditions: test compound concentration 10 uM; Enzyme and Cell-based assays
# Description: as §2
# T5 sequence (P22303 32-614): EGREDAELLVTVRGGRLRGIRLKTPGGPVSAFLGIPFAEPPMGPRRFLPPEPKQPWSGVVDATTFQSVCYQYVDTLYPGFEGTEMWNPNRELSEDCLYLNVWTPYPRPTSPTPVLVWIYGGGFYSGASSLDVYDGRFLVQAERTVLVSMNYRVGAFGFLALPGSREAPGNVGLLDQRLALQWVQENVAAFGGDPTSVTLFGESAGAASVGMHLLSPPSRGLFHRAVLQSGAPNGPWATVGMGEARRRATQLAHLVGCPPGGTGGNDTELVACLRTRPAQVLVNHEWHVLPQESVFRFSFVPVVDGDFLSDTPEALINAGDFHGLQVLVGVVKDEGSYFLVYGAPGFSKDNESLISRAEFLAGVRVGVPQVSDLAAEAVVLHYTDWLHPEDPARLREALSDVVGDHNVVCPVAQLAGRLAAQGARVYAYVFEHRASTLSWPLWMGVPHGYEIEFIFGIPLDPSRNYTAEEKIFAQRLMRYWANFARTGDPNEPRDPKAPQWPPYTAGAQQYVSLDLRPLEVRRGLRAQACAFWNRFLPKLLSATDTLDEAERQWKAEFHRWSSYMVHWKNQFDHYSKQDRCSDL
row,Compound,"perc_inhibition: % inhibition of control enzyme activity, acetylcholinesterase (h) [%]"
1,CNCc1cc(-c2cc3c(N[C@@H](c4ccc5c(c4)S(=O)(=O)CCC5)C(C)C)ncnc3[nH]2)co1 [ASAP-0011176],10

# Biological target: T6, CB1 (h) (Homo sapiens, UniProt P21554)
# T6 construct: purchased Eurofins Cerep (SafetyScreen44), recognised from the panel format
# Test: In vitro CEREP profiling, CB1 (h) (agonist radioligand)
# Type: binding
# Conditions: test compound 10 uM
# Description: as §2
# T6 sequence (P21554 whole entry): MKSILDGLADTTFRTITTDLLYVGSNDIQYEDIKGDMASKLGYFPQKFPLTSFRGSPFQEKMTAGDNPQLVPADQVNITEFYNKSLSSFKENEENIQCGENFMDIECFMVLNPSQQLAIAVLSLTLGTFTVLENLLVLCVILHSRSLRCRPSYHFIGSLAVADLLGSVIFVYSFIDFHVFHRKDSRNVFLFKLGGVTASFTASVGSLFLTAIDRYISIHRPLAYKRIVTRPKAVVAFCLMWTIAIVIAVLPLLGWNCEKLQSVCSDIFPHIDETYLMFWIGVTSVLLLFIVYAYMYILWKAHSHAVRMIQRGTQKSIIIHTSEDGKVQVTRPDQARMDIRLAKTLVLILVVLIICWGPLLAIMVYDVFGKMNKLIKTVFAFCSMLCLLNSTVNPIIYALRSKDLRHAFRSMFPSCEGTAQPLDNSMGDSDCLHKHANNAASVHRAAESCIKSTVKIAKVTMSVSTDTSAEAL
row,Compound,perc_inhibition (% inhibition of the binding of a ligand specific for each target) [%]
1,CNCc1cc(-c2cc3c(N[C@@H](c4ccc5c(c4)S(=O)(=O)CCC5)C(C)C)ncnc3[nH]2)co1 [ASAP-0011176],3

# Biological target: T7, mu (MOP) (h) (Homo sapiens, UniProt P35372)
# T7 construct: purchased Eurofins Cerep (SafetyScreen44), recognised from the panel format
# Test: In vitro CEREP profiling, mu (MOP) (h) (agonist radioligand)
# Type: binding
# Conditions: test compound concentration 10 uM
# Description: as §2
# T7 sequence (P35372 whole entry): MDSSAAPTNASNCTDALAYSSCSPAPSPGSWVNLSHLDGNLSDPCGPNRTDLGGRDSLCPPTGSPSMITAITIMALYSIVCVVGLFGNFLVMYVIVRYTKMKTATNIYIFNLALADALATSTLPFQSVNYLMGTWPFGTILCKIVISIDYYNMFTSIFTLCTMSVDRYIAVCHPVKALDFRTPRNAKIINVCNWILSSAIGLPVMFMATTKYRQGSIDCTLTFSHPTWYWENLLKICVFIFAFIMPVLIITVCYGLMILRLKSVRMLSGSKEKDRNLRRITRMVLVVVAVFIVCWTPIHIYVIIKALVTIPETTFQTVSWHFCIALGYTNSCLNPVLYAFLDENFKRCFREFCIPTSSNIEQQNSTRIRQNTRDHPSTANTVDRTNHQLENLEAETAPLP
row,Compound,perc_inhibition (% inhibition of the binding of a ligand specific for each target) [%]
1,CNCc1cc(-c2cc3c(N[C@@H](c4ccc5c(c4)S(=O)(=O)CCC5)C(C)C)ncnc3[nH]2)co1 [ASAP-0011176],-5

# Test system: HeLa-ACE2 cells
# Test: not given
# Conditions: HeLa-ACE2 cytotoxicity
Compound,CC50 [µM],cc10 [µM]
CNCc1cc(-c2cc3c(N[C@@H](c4ccc5c(c4)S(=O)(=O)CCC5)C(C)C)ncnc3[nH]2)co1 [ASAP-0011176],> 20,> 20.0

# Same assay, conditions: HeLa-ACE2 cytotoxicity; highest measured response of the dose series
row,Compound,perc_max_measured [%]
1,CNCc1cc(-c2cc3c(N[C@@H](c4ccc5c(c4)S(=O)(=O)CCC5)C(C)C)ncnc3[nH]2)co1 [ASAP-0011176],120.991

# Same assay, conditions: HeLa-ACE2 cytotoxicity; lowest measured response of the dose series
row,Compound,perc_min_measured [%]
1,CNCc1cc(-c2cc3c(N[C@@H](c4ccc5c(c4)S(=O)(=O)CCC5)C(C)C)ncnc3[nH]2)co1 [ASAP-0011176],77.721

# Same assay, conditions: protocol HeLa-ACE2 cytotoxicity
Compound,CC50 [µM],cc10 [µM]
CNCc1cc(-c2cc3c(N[C@@H](c4ccc5c(c4)S(=O)(=O)CCC5)C(C)C)ncnc3[nH]2)co1 [ASAP-0011176],> 20,> 20.0

# Same assay, conditions: protocol HeLa-ACE2 cytotoxicity; highest measured response of the dose series
row,Compound,perc_max_measured [%]
1,CNCc1cc(-c2cc3c(N[C@@H](c4ccc5c(c4)S(=O)(=O)CCC5)C(C)C)ncnc3[nH]2)co1 [ASAP-0011176],106.042

# Same assay, conditions: protocol HeLa-ACE2 cytotoxicity; lowest measured response of the dose series
row,Compound,perc_min_measured [%]
1,CNCc1cc(-c2cc3c(N[C@@H](c4ccc5c(c4)S(=O)(=O)CCC5)C(C)C)ncnc3[nH]2)co1 [ASAP-0011176],91.552

# Biological target: T8, 5-HT1A (h) (Homo sapiens, UniProt P08908)
# T8 construct: purchased Eurofins Cerep (SafetyScreen44), recognised from the panel format
# T8 sequence (P08908 1-422): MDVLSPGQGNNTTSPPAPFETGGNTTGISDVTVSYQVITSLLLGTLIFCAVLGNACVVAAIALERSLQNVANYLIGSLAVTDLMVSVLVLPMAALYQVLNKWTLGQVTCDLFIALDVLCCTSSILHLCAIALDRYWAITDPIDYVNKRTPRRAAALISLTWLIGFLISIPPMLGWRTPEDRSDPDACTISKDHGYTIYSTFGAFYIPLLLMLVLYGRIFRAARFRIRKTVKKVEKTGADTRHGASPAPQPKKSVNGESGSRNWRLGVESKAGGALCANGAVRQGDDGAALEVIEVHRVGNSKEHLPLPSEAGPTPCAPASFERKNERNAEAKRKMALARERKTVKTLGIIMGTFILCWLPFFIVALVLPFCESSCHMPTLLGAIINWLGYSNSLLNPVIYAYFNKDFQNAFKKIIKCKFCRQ
# Test: In vitro CEREP profiling, 5-HT1A (h) (agonist radioligand)
# Type: binding
# Conditions: test compound concentration 10 uM
# Description: as §2
row,Compound,perc_inhibition (% inhibition of the binding of a ligand specific for each target) [%]
1,CNCc1cc(-c2cc3c(N[C@@H](c4ccc5c(c4)S(=O)(=O)CCC5)C(C)C)ncnc3[nH]2)co1 [ASAP-0011176],6

# Biological target: T9, ETA (h) (Homo sapiens, UniProt P25101)
# T9 construct: purchased Eurofins Cerep (SafetyScreen44), recognised from the panel format
# T9 sequence (P25101 21-427): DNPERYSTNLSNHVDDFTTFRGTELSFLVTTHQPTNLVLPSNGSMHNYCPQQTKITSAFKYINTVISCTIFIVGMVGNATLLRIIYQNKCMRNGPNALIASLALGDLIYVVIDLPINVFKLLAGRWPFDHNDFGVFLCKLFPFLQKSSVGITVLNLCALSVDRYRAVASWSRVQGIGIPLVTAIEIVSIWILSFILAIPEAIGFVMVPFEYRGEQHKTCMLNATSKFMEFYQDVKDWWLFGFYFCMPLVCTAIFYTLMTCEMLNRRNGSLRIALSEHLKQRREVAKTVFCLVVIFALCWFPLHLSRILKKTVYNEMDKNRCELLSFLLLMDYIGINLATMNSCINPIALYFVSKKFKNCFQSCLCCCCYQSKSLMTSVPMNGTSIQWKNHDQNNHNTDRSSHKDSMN
# Test: In vitro CEREP profiling, ETA (h) (agonist radioligand)
# Type: binding
# Conditions: test compound 10 uM
# Description: as §2
row,Compound,perc_inhibition (% inhibition of the binding of a ligand specific for each target) [%]
1,CNCc1cc(-c2cc3c(N[C@@H](c4ccc5c(c4)S(=O)(=O)CCC5)C(C)C)ncnc3[nH]2)co1 [ASAP-0011176],-1

# Test system: not listed separately
# Test: In vitro dog liver microsomal stability
# Type: in vitro ADME
# Conditions: not given
# Description: Supplement media-1.zip/Hepatic_Microsomal_Stability.csv, table | column: clint; t_half
Compound,clint [µL/min/mg],t_half [min]
CNCc1cc(-c2cc3c(N[C@@H](c4ccc5c(c4)S(=O)(=O)CCC5)C(C)C)ncnc3[nH]2)co1 [ASAP-0011176],20.0,34.7

# Reference: doi:10.1101/2024.08.19.608619, “Discovery of potent SARS-CoV-2 nsp3 macrodomain inhibitors uncovers lack of translation to cellular antiviral response” (bioRxiv, 2024)
